Assay results reported in PubChem BioAssay AID2060909 (Molecular Pharmacology Branch, DTP, NCI, 2025).

System: 362531-283-R-J2-PDC complex spheroid viability
Experiment: Anticancer human tumor 362531-283-R-J2-PDC patient-derived colon adenocarcinoma cell line growth inhibition [RAS]
Settings: for IC50: curve of first compound; for viability, T/C: stronger effect = lower value; active = viability on the fitted dose curve at most 10% of control; inactive = the rest
How it was run: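 Agents were tested in combination matrices in half-log decrements from a top concentration at or near clinical Cmax (10 microM if undetermined). Targets were multi-cell spheroids of tumour lines plus HUVEC and MSC stromal cells.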

[1] = second compound 0.000949 µM, first compound 0.0316 µM
[2] = second compound 0.000949 µM, first compound 0.1 µM
[3] = second compound 0.000949 µM, first compound 0.316 µM
[4] = second compound 0.000949 µM, first compound 1 µM
[5] = second compound 0.003 µM, first compound 0.0316 µM
[6] = second compound 0.003 µM, first compound 0.1 µM
[7] = second compound 0.003 µM, first compound 0.316 µM
[8] = second compound 0.003 µM, first compound 1 µM
[9] = second compound 0.00949 µM, first compound 0.0316 µM
[10] = second compound 0.00949 µM, first compound 0.1 µM
[11] = second compound 0.00949 µM, first compound 0.316 µM
[12] = second compound 0.00949 µM, first compound 1 µM
[13] = second compound 0.03 µM, first compound 0.0316 µM
[14] = second compound 0.03 µM, first compound 0.1 µM
[15] = second compound 0.03 µM, first compound 0.316 µM
[16] = second compound 0.03 µM, first compound 1 µM
[17] = second compound 0.0949 µM, first compound 0.0316 µM
[18] = second compound 0.0949 µM, first compound 0.1 µM
[19] = second compound 0.0949 µM, first compound 0.316 µM
[20] = second compound 0.0949 µM, first compound 1 µM
[21] = second compound 0.3 µM, first compound 0.0316 µM
[22] = second compound 0.3 µM, first compound 0.1 µM
[23] = second compound 0.3 µM, first compound 0.316 µM
[24] = second compound 0.3 µM, first compound 1 µM
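Note: spheroids exposed to the agents for 7 days before readout.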
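Throughout, for viability, T/C: luminescence viability as percent of DMSO vehicle control wells.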

C[C@@H](NC(=O)c1ncnc(N)c1Cl)c1ncc(C(=O)Nc2cc(C(F)(F)F)c(Cl)cn2)s1 + CCn1c(-c2cc(N3CCN(C)CC3)cnc2C(C)OC)c2c3cc(ccc31)-c1csc(n1)CC(NC(=O)C1CC1C)C(=O)N1CCCC(N1)C(=O)OCC(C)(C)C2
> 10000 nM: IC50 (second compound 0.000949 µM) | IC50 (second compound 0.003 µM) | IC50 (second compound 0.00949 µM) | IC50 (second compound 0.03 µM) | IC50 (second compound 0.0949 µM)
3740 nM: IC50 (second compound 0.3 µM)
inactive: viability, T/C [1] 107% | viability, T/C [2] 110% | viability, T/C [3] 94.3% | viability, T/C [4] 103% | viability, T/C (second compound 0.000949 µM, first compound 3.16 µM) 96.1% | viability, T/C (second compound 0.000949 µM, first compound 10 µM) 78.5% | viability, T/C [5] 106% | viability, T/C [6] 104% | viability, T/C [7] 93.3% | viability, T/C [8] 94.3% | viability, T/C (second compound 0.003 µM, first compound 3.16 µM) 85.6% | viability, T/C (second compound 0.003 µM, first compound 10 µM) 69.6% | viability, T/C [9] 94% | viability, T/C [10] 100% | viability, T/C [11] 95.9% | viability, T/C [12] 96.9% | viability, T/C (second compound 0.00949 µM, first compound 3.16 µM) 86.3% | viability, T/C (second compound 0.00949 µM, first compound 10 µM) 66% | viability, T/C [13] 107% | viability, T/C [14] 92.6% | viability, T/C [15] 91.7% | viability, T/C [16] 92% | viability, T/C (second compound 0.03 µM, first compound 3.16 µM) 78% | viability, T/C (second compound 0.03 µM, first compound 10 µM) 62.1% | viability, T/C [17] 79.3% | viability, T/C [18] 87% | viability, T/C [19] 78.7% | viability, T/C [20] 73.7% | viability, T/C (second compound 0.0949 µM, first compound 3.16 µM) 76.2% | viability, T/C (second compound 0.0949 µM, first compound 10 µM) 62.5% | viability, T/C [21] 56.6% | viability, T/C [22] 56.2% | viability, T/C [23] 58.5% | viability, T/C [24] 59.9% | viability, T/C (second compound 0.3 µM, first compound 3.16 µM) 72% | viability, T/C (second compound 0.3 µM, first compound 10 µM) 26.3%

CCN1CCN(Cc2ccc(Nc3ncc(F)c(-c4cc(F)c5nc(C)n(C(C)C)c5c4)n3)nc2)CC1 + CCn1c(-c2cc(N3CCN(C)CC3)cnc2C(C)OC)c2c3cc(ccc31)-c1csc(n1)CC(NC(=O)C1CC1C)C(=O)N1CCCC(N1)C(=O)OCC(C)(C)C2
active: viability, T/C [23] 6.94% | viability, T/C [24] 11.1%
< 3.16 nM: IC50 (second compound 0.3 µM)
471 nM: IC50 (second compound 0.00949 µM)
714 nM: IC50 (second compound 0.003 µM)
112 nM: IC50 (second compound 0.0949 µM)
308 nM: IC50 (second compound 0.03 µM)
830 nM: IC50 (second compound 0.000949 µM)
inactive: viability, T/C (second compound 0.000949 µM, first compound 0.00316 µM) 95.6% | viability, T/C (second compound 0.000949 µM, first compound 0.01 µM) 114% | viability, T/C [1] 99.2% | viability, T/C [2] 90.4% | viability, T/C [3] 69.9% | viability, T/C [4] 46.1% | viability, T/C (second compound 0.003 µM, first compound 0.00316 µM) 106% | viability, T/C (second compound 0.003 µM, first compound 0.01 µM) 110% | viability, T/C [5] 96.4% | viability, T/C [6] 87.8% | viability, T/C [7] 66.6% | viability, T/C [8] 43.1% | viability, T/C (second compound 0.00949 µM, first compound 0.00316 µM) 102% | viability, T/C (second compound 0.00949 µM, first compound 0.01 µM) 112% | viability, T/C [9] 105% | viability, T/C [10] 100% | viability, T/C [11] 61.4% | viability, T/C [12] 28.4% | viability, T/C (second compound 0.03 µM, first compound 0.00316 µM) 102% | viability, T/C (second compound 0.03 µM, first compound 0.01 µM) 96.8% | viability, T/C [13] 93.2% | viability, T/C [14] 73.5% | viability, T/C [15] 50.1% | viability, T/C [16] 15.2% | viability, T/C (second compound 0.0949 µM, first compound 0.00316 µM) 86.9% | viability, T/C (second compound 0.0949 µM, first compound 0.01 µM) 81% | viability, T/C [17] 81.7% | viability, T/C [18] 54.2% | viability, T/C [19] 10.9% | viability, T/C [20] 13.2% | viability, T/C (second compound 0.3 µM, first compound 0.00316 µM) 48.4% | viability, T/C (second compound 0.3 µM, first compound 0.01 µM) 46.8% | viability, T/C [21] 40% | viability, T/C [22] 13.3%

CC1(C)CCC(Nc2ncc(C(F)(F)F)c(-c3c[nH]c4c(P(C)(C)=O)c(C#N)ccc34)n2)CN1 (stereo unspecified) + C=CC(=O)N1CCN(c2nc(OCC3CCCN3C)nc3c(F)c(-c4nc(N)cc(C)c4C(F)(F)F)c(Cl)cc23)C(C)C1
> 300 nM: IC50 (second compound 0.00316 µM) | IC50 (second compound 0.01 µM) | IC50 (second compound 0.0316 µM) | IC50 (second compound 0.1 µM) | IC50 (second compound 0.316 µM) | IC50 (second compound 1 µM)
inactive: viability, T/C (second compound 0.00316 µM, first compound 0.000949 µM) 96.5% | viability, T/C (second compound 0.00316 µM, first compound 0.003 µM) 104% | viability, T/C (second compound 0.00316 µM, first compound 0.00949 µM) 103% | viability, T/C (second compound 0.00316 µM, first compound 0.03 µM) 100% | viability, T/C (second compound 0.00316 µM, first compound 0.0949 µM) 107% | viability, T/C (second compound 0.00316 µM, first compound 0.3 µM) 99.1% | viability, T/C (second compound 0.01 µM, first compound 0.000949 µM) 103% | viability, T/C (second compound 0.01 µM, first compound 0.003 µM) 112% | viability, T/C (second compound 0.01 µM, first compound 0.00949 µM) 104% | viability, T/C (second compound 0.01 µM, first compound 0.03 µM) 98.8% | viability, T/C (second compound 0.01 µM, first compound 0.0949 µM) 109% | viability, T/C (second compound 0.01 µM, first compound 0.3 µM) 101% | viability, T/C (second compound 0.0316 µM, first compound 0.000949 µM) 105% | viability, T/C (second compound 0.0316 µM, first compound 0.003 µM) 105% | viability, T/C (second compound 0.0316 µM, first compound 0.00949 µM) 103% | viability, T/C (second compound 0.0316 µM, first compound 0.03 µM) 98.7% | viability, T/C (second compound 0.0316 µM, first compound 0.0949 µM) 106% | viability, T/C (second compound 0.0316 µM, first compound 0.3 µM) 96.5% | viability, T/C (second compound 0.1 µM, first compound 0.000949 µM) 102% | viability, T/C (second compound 0.1 µM, first compound 0.003 µM) 105% | viability, T/C (second compound 0.1 µM, first compound 0.00949 µM) 104% | viability, T/C (second compound 0.1 µM, first compound 0.03 µM) 103% | viability, T/C (second compound 0.1 µM, first compound 0.0949 µM) 104% | viability, T/C (second compound 0.1 µM, first compound 0.3 µM) 107% | viability, T/C (second compound 0.316 µM, first compound 0.000949 µM) 109% | viability, T/C (second compound 0.316 µM, first compound 0.003 µM) 103% | viability, T/C (second compound 0.316 µM, first compound 0.00949 µM) 111% | viability, T/C (second compound 0.316 µM, first compound 0.03 µM) 98.6% | viability, T/C (second compound 0.316 µM, first compound 0.0949 µM) 112% | viability, T/C (second compound 0.316 µM, first compound 0.3 µM) 93.5% | viability, T/C (second compound 1 µM, first compound 0.000949 µM) 99.2% | viability, T/C (second compound 1 µM, first compound 0.003 µM) 101% | viability, T/C (second compound 1 µM, first compound 0.00949 µM) 98.9% | viability, T/C (second compound 1 µM, first compound 0.03 µM) 108% | viability, T/C (second compound 1 µM, first compound 0.0949 µM) 113% | viability, T/C (second compound 1 µM, first compound 0.3 µM) 105%
